We go through 7 molecules from patent EP0326331B1, “Substituted quinolines and cinnolines” (Dow AgroSciences LLC, priority 1988, dated 1989).

Where two headings read alike, the source gives them in different places.

What all share (type): in vivo
The test system of assay [1] is Erysiphe graminis tritici (powdery mildew). Description: Test 1 greenhouse foliar spray screen, powdery mildew on wheat. Particulars: for POWD MDEW: disease control rating, foliar spray on wheat, 400 ppm (+++ at 100 ppm); for pest or weed control at 400 ppm: Blumeria graminis, foliar, Test 1, foliar spray on wheat, disease control rating at 400 ppm / 100 ppm, read-out: POWD MDEW.

Assay [2] deals with Pyricularia oryzae (rice blast). Put plainly: whole plant or invertebrate. The settings on record: for RICE BLAST: disease control rating, foliar spray on rice, 400 ppm (+++ at 100 ppm); for pest or weed control at 400 ppm: Pyricularia oryzae, foliar, read-out: RICE BLAST, Test 1, foliar spray on rice, disease control rating at 400 ppm / 100 ppm.
The test system of assay [3] is Puccinia recondita tritici (leaf rust). Put plainly: Test 1 greenhouse foliar spray screen, leaf rust on wheat. Particulars: for LEAF RUST: disease control rating, foliar spray on wheat, 400 ppm (+++ at 100 ppm); for pest or weed control at 400 ppm: Puccinia recondita, foliar, Test 1, foliar spray on wheat, disease control rating at 400 ppm / 100 ppm.
In assay [4] the test system is Botrytis cinerea (gray mold). Description: Test 1 greenhouse foliar spray screen, gray mold on grape berries. The settings on record: for GRAY MOLD: disease control rating, spray on grape berries, 400 ppm (+++ at 100 ppm); for pest or weed control at 400 ppm: Botrytis cinerea, foliar, Test 1, spray on grape berries, disease control rating at 400 ppm / 100 ppm.
In assay [5] the test system is Pseudoperonospora cubensis (downy mildew). Description: Test 1 greenhouse foliar spray screen, downy mildew on squash. Particulars: for DOWN MDEW: disease control rating, foliar spray on squash, 400 ppm (+++ at 100 ppm); for pest or weed control at 400 ppm: Pseudoperonospora cubensis, foliar, Test 1, foliar spray on squash, disease control rating at 400 ppm / 100 ppm, read-out: DOWN MDEW.

In assay [6] the test system is Cercospora beticola (leaf spot). Put plainly: Test 1 greenhouse foliar spray screen, leaf spot on sugar beet. Particulars: for LEAF SPOT: disease control rating, foliar spray on sugar beet, 400 ppm (+++ at 100 ppm); for pest or weed control at 400 ppm: Cercospora beticola, Test 1, foliar spray on sugar beet, disease control rating at 400 ppm / 100 ppm.
The subject of assay [7] is Venturia inaequalis (apple scab). Put plainly: Test 1 greenhouse foliar spray screen, apple scab on apple seedling. The settings on record: for APPL SCAB: disease control rating, foliar spray on apple seedling, 400 ppm (+++ at 100 ppm); for pest or weed control at 400 ppm: Venturia inaequalis, Test 1, foliar spray on apple seedling, disease control rating at 400 ppm / 100 ppm, read-out: APPL SCAB.

The subject of assay [8] is Septoria tritici (leaf blotch). Description: Test 1 greenhouse foliar spray screen, leaf blotch on wheat. Particulars: for LEAF BLOT: disease control rating, foliar spray on wheat, 400 ppm (+++ at 100 ppm); for pest or weed control at 400 ppm: Zymoseptoria tritici, Test 1, foliar spray on wheat, disease control rating at 400 ppm / 100 ppm, read-out: LEAF BLOT.
The subject of assay [9] is southern armyworm (Spodopetra eridania Cramer). Description: Mite/insect screen, SAW. Particulars: Spodoptera eridania, foliar, percent mortality, foliar spray on squash, read-out: SAW RESULTS %; for mortality at 200 ppm: rate 200 ppm; for mortality at 400 ppm: rate 400 ppm. The method in brief: (§1)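 Activity is expressed as percent mortality at the indicated spray concentrations. Plants are sprayed to runoff on upper and lower leaf surfaces with aqueous dilutions of an acetone/alcohol emulsifiable formulation, then dried for one hour.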

In assay [10] the test system is Twospotted spider mites (Tetranychus urticae Koch). Put plainly: Mite/insect screen, SM. Particulars: for mortality at 200 ppm / mortality at 400 ppm: Tetranychus urticae, foliar, percent mortality, foliar spray on squash, read-out: SM RESULTS %; for mortality at 200 ppm: rate 200 ppm; for mortality at 400 ppm: rate 400 ppm. Put shortly: as §1
Assay [11] deals with melon aphids (Aphis gossypii Glover). Description: Mite/insect screen, MA. The settings on record: Aphis gossypii, foliar, percent mortality, foliar spray on squash, read-out: MA RESULTS %; for mortality at 200 ppm: rate 200 ppm; for mortality at 400 ppm: rate 400 ppm. The method in brief:
as §1

A further assay relates to corn rootworm. Put plainly: Mite/insect screen, CRW. The settings on record: read-out: CRW RESULTS %; for mortality at 24 ppm: CRW rate 24.00 ppm. The method in brief: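 Each compound, taken up in an emulsifier-containing acetone/alcohol mixture and diluted in water to the stated concentrations, was assessed for percent kill following standard exposure times.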
Setting [12] is: percent mortality, CRW rate 12.00 ppm.
Setting [13] is: summary statement in the description.

For the molecule `Clc1ccc(CCNc2ccc3c(NCCc4ccc(Cl)cc4)ccnc3c2)cc1` [Example 186, N,N'-bis[2-(4-chlorophenyl)ethyl]-4,7-quinolinediamine], in assay [1], the “POWD MDEW” value is “- (0-19% control at 400 ppm)”. In assay [2], the “RICE BLAST” value is “- (0-19% control at 400 ppm)”. In addition, the “LEAF RUST” value in [3] is reported as “+ (20-89% control at 400 ppm)”. In assay [4], the “GRAY MOLD” value was “- (0-19% control at 400 ppm)”. Besides, the “DOWN MDEW” value in [5] is recorded as “+++ (90-100% control at 100 ppm)”. For the same molecule, the “LEAF SPOT” value in [6] is listed as “+ (20-89% control at 400 ppm)”. The “APPL SCAB” value in assay [7] is on record as “- (0-19% control at 400 ppm)”. The “LEAF BLOT” value in assay [8] is listed as “+ (20-89% control at 400 ppm)”. In addition, the mortality at 200 ppm in [9], in assay [10] and in [11] was 0% in each case. The mortality at 400 ppm in assay [9], in assay [10] and in assay [11] was 0% in each case. For the same molecule, the mortality at 12 ppm with corn rootworm (setting [12]) was 0%. The mortality at 24 ppm with corn rootworm (percent mortality) was 0%.

Take `COc1ccc(CCNc2ccc3c(NCCc4ccc(OC)cc4)ccnc3c2)cc1` [Example 187, N,N'-bis[2-(4-methoxyphenyl)ethyl]-4,7-quinolinediamine]: the “POWD MDEW” value in [1] is on record as “- (0-19% control at 400 ppm)”. For the same molecule, the “RICE BLAST” value in [2] is “+ (20-89% control at 400 ppm)”. The “LEAF RUST” value in assay [3] is reported as “+ (20-89% control at 400 ppm)”. In addition, the “GRAY MOLD” value in assay [4] is reported as “- (0-19% control at 400 ppm)”. For the same molecule, the “DOWN MDEW” value in assay [5] was “+++ (90-100% control at 100 ppm)”. In addition, the “LEAF SPOT” value in assay [6] is “- (0-19% control at 400 ppm)”. For the same molecule, in assay [7], the “APPL SCAB” value is recorded as “- (0-19% control at 400 ppm)”. In addition, in assay [8], the “LEAF BLOT” value is listed as “- (0-19% control at 400 ppm)”. Besides, the mortality at 200 ppm in assay [9], in assay [10] and in assay [11] was 0% throughout. In addition, the mortality at 400 ppm in assay [9], in assay [10] and in [11] was 0% throughout. Moreover, in the assay on corn rootworm (setting [12]), the mortality at 12 ppm amounted to 0%. Besides, the mortality at 24 ppm with corn rootworm (percent mortality) was 0%.

In the case of `c1ccc(CCNc2ccnc3c(NCCc4ccccc4)cccc23)cc1` [Example 189, N,N'-bis(2-phenylethyl)-4,8-quinolinediamine], the pest or weed control at 400 ppm is 0 to 19% in assay [1]; 20 to 89% in assay [2]; 20 to 89% in assay [3]; 0 to 19% in assay [4]; 20 to 89% in assay [5]; 0 to 19% in [6]. The pest or weed control at 400 ppm in [7] and in [8] was 0 to 19% throughout. Moreover, the mortality at 200 ppm in assay [9], in [10] and in assay [11] was 0% in each case. Also, the mortality at 12 ppm with corn rootworm (setting [12]) was found to be 0%.

Turning to `Fc1cccc2c(NCCc3ccc(Cl)cc3Cl)cc(NCCc3ccc(Cl)cc3Cl)nc12` [Example 190, N,N'-bis[2-(2,4-dichlorophenyl)ethyl]-8-fluoro-2,4-quinolinediamine], the pest or weed control at 400 ppm was 0 to 19% in assay [1]; 20 to 89% in assay [2]; 90 to 100% in [3]; 0 to 19% in assay [4]; 0 to 19% in [5]; 0 to 19% in [6]. For the same molecule, the pest or weed control at 400 ppm in assay [7] and in [8] was 0 to 19% throughout. Moreover, the mortality at 200 ppm in assay [9], in [10] and in [11] was 0% in each case. The mortality at 12 ppm in the assay on corn rootworm amounted to 0%.

With `C1=C(CCNc2ccc3nccc(NCCC4=CCCCC4)c3c2)CCCC1` [Example 192, N,N'-bis[2-(1-cyclohexen-yl)ethyl]-4,6-quinolinediamine], the pest or weed control at 400 ppm was 0 to 19% in assay [1]; 0 to 19% in assay [2]; 90 to 100% in assay [3]; 0 to 19% in [4]; 90 to 100% in [5]; 0 to 19% in assay [6]. In addition, the pest or weed control at 400 ppm lay within 0 to 19% in [7] and 20 to 89% in assay [8]. In addition, the mortality at 200 ppm in assay [9], in assay [10] and in assay [11] was 0% throughout. Further, the mortality at 400 ppm in [9], in assay [10] and in assay [11] was 0% in each case. Also, in the assay with corn rootworm (setting [12]), the mortality at 12 ppm came to 0%. Further, the mortality at 24 ppm in the assay with corn rootworm (percent mortality) worked out at 0%.

Regarding `Fc1cccc2c(OCCc3cccc(Cl)c3)ccnc12` [Example 201, 4-[2-(3-chlorophenyl)ethoxy]-8-fluoroquinoline], the pest or weed control at 400 ppm in assay [1] fell in the range of 90 to 100%; in assay [2] it was 20 to 89%; in assay [3], 90 to 100%; in [4], 0 to 19%; in assay [5] it was 90 to 100%; in assay [6], 90 to 100%. Further, the results for the pest or weed control at 400 ppm in assay [7] and in assay [8] were 20 to 89% and 90 to 100%, respectively. For the same molecule, the “activity against downy mildew” value in [5] (setting [13]) is given as “particularly excellent activity”. For the same molecule, the mortality at 200 ppm in [9] was 0%; in assay [10] it was 80%; in assay [11] it was 100%. Besides, the mortality at 400 ppm in assay [9] amounted to 0%; in [10] it was 80%; in assay [11] it was 100%. The activity as miticides entry in assay [10] (setting [13]) is on record as “particularly excellent activity”. Further, the mortality at 12 ppm with corn rootworm (setting [12]) came to 0%. In the assay on corn rootworm (percent mortality), the mortality at 24 ppm turned out to be 0%.

As for `Clc1ccc2c(OCCc3ccccc3)ccnc2c1` [Example 202, 7-chloro-4-(2-phenylethoxy)quinoline], the pest or weed control at 400 ppm in assay [1] lay in the range of 90 to 100%; in assay [2], 20 to 89%; in [3] it was 90 to 100%; in [4], 0 to 19%; in assay [5], 90 to 100%; in [6] it was 20 to 89%. For the same molecule, the results for the pest or weed control at 400 ppm in assay [7] and in assay [8] were 0 to 19% and 20 to 89%, respectively. Also, the mortality at 200 ppm in [9], in assay [10] and in assay [11] was 0% in each case. Also, the mortality at 400 ppm in assay [9], in assay [10] and in assay [11] was 0% in each case. For the same molecule, the mortality at 12 ppm in the assay on corn rootworm (setting [12]) stood at 0%. Also, the mortality at 24 ppm with corn rootworm (percent mortality) was found to be 0%.
